The structures appear in SMILES notation. In brackets after ≈: the same amount, converted by molar mass. Like-named read-outs stand apart in the source and are kept apart here.

What is called MIC is the lowest concentration that inhibits growth of the organism. As a reminder, the MBC is the smallest concentration meeting the test's criterion for killing. Broadly, the logP is the decadic logarithm of the partition coefficient of the neutral form, usually between octanol and water. Low readings indicate a more hydrophilic compound, high ones a more lipophilic compound.

For data set [1], the system named is E. coli ATCC 8739. Nature of the data set: Broth microdilution MIC/MBC on planktonic cells. To be noted: Escherichia coli, ATCC8739. Type of data set: cell-based. The protocol:
(§1) Two Gram-positive (S. aureus ATCC 29213 and S. epidermidis ATCC 35984) and two Gram-negative (E. coli ATCC 8739 and P. aeruginosa ATCC 9027) strains, and one fungal strain (C. albicans ATCC 10231) were used for the detection of antibacterial activity of carvacrol, NAC, Ac-Cys(Allyl)-OH, and carvacrol codrugs 1–10. All tested compounds were dissolved in 20% DMSO to prepare the stock solution (100 mg/mL). The final concentration of DMSO in each well appeared to be not toxic for all studied microorganisms, as confirmed by the solvent control test included in the study.
(§2) The effects of carvacrol codrugs 1–10 and reference compounds on planktonic cells were evaluated by Minimum Inhibitory Concentration (MIC) and Minimum Bactericidal Concentration (MBC) determination using the broth microdilution method according to EUCAST guidelines. Bacterial suspensions, grown in Mueller–Hinton Broth (MHB) at logarithmic phase, were incubated on microtiter plates at a concentration of 5 x 10^5 CFU/mL, with several dilutions (0.07–40 mg/mL) for 24 h at 37°C. The MIC was defined as the lowest concentration of substances giving a complete inhibition of visible growth in comparison with a control well, and the MBC was determined as the lowest concentration at which no bacterial growth occurred on Mueller–Hinton Agar plates.
(§3) Data were obtained from at least three independent experiments performed in duplicate. The susceptibility of the bacterial strains against ciprofloxacin was used as an internal standard during MIC determinations.
On the technique in general: Broth dilution looks for growth in wells or tubes with falling amounts of substance.

Another data set concerns P. aeruginosa ATCC 9027. Nature of the data set: Broth microdilution MIC/MBC on planktonic cells. Type of data set: cell-based. To be noted: Pseudomonas aeruginosa, ATCC9027. How it is done:
as §1, §2, §3

Data set [2] relates to S. aureus ATCC 29213. Nature of the data set: Broth microdilution MIC/MBC on planktonic cells. Type of data set: cell-based. To be noted: Staphylococcus aureus, ATCC29213. The protocol:
as §1, §2, §3

For data set [3], the system named is S. epidermidis ATCC 35984. In words: Broth microdilution MIC/MBC on planktonic cells. Format: cell-based. The following applies: Staphylococcus epidermidis, ATCC35984. How it is done:
as §1, §2, §3

Data set [4] relates to human red blood cells (h-RBC). In words: Hemolytic activity. Format: cell-based. How it is done: Experimental protocols to study hemolysis on human red cells were approved by Ethics Committee of the University “G. d’Annunzio” Chieti-Pescara. Human red cells were from two volunteers, who signed the informed consent for this study.
Hemolytic activity of carvacrol codrugs 1–10 was tested against human red blood cells (h-RBC). Fresh human blood, collected with EDTA, was centrifuged at 3000 rpm for 5 min then washed three times with PBS pH 7.3. Red blood cells were diluted to 4% in PBS and incubated with different codrugs concentrations ranging from 25 to 0.05 mg/mL. After 1 h of incubation at 37°C, the suspensions were sedimented by centrifugation and the release of hemoglobin was determined by absorbance measurement at 405 nm and compared with a 0% hemolysis control (PBS) and a 100% hemolysis control (PBS with 1% v/v Triton X-100). The percentage of hemolysis was calculated using the following equation: Hemolysis (%) = [(OD405sample - OD4050% lysis control)/(OD405100% lysis control - OD4050% lysis contro)] X 100

A further data set deals with C. albicans ATCC 10231. In words: Transmission electron microscopy. Format: cell-based. The following applies: 12.5 mg/mL for 3 h. From the text:
(§4) For transmission electron microscopy, microrganisms were fixed with 2.5% glutaraldehyde in 0.1 M cacodylate buffer, postfixed with 1% OsO4, dehydrated in graded ethanol and embedded in Epon 812. Ultrathin sections (60 to 80 nm) were then mounted on 200-mesh copper grids and stained with uranyl acetate and lead citrate for ultrastructural observation. Sections were photographed using a Philips 268 D electron microscope (FEI).

The subject of data set [5] is E. coli ATCC 8739. In words: Transmission electron microscopy. The following applies: 12.5 mg/mL for 3 h. Type of data set: cell-based.
Text: as §4

Data set [6] relates to S. aureus ATCC 29213. In words: Transmission electron microscopy. Format: cell-based. To be noted: 12.5 mg/mL for 3 h.
Text: as §4

The nature of data set [7]: Lipophilicity LogP (experimental). Format: physicochemical. The following applies: mean of three experiments (SD). From the text: Table 3 Physicochemical properties of carvacrol codrug 4. | column: Lipophilicity / LogP ^a
The next data set in a line: PAMPA-GI permeability. Format: in vitro ADME. To be noted: for Papp at 16 h: 16 h of incubation (table title), 2% Tween 80, 10% MeOH, read-out: PAMPA-GI permeability P e. The protocol: Parallel Artificial Membrane Permeability Assay (PAMPA) was used to measure the permeability coefficient (P e) of codrug 4 through the artificial membrane to predict oral absorption. The carvacrol codrug 4 permeability was determined using PAMPA-GI protocols already developed. Briefly, donor and acceptor plates were assembled to form a “sandwich” and incubated at room temperature for 18 h.
P e can be calculated from the equation below: Pe={VD⋅VA/(VD+VA)⋅A⋅t⋅ln(1−[drug]acceptor/[drug]equilibrium)} (1) where P e is the effective permeability coefficient (cm × s^-1), V D is the volume of the donor compartment (0.15 cm^3) and V A is the volume of the acceptor compartment (0.30 cm^3), A is the effective filter area (0.28 cm^2), t is the incubation time for the assay (s), [drug] acceptor is the concentration of the compound in the acceptor compartment at assay completion, and [drug] equilibrium is the concentration of the compound at theoretical equilibrium.

In the case of `C=CCSC[C@H](NC(C)=O)C(=O)Oc1cc(C(C)C)ccc1C` [codrug 4, N-Ac-Cys(Allyl)-CAR], the MIC was 2500 µg/mL (≈ 7.45 mM) with E. coli ATCC 8739 [1] (E. coli ATCC 8739, 24 h at 37°C, read-out: MIC); 5000 µg/mL (≈ 14.9 mM) in the data set on P. aeruginosa ATCC 9027 (P. aeruginosa ATCC 9027, 24 h at 37°C, read-out: MIC); 2500 µg/mL (≈ 7.45 mM) in the data set with S. aureus ATCC 29213 [2] (S. aureus ATCC 29213, 24 h at 37°C, read-out: MIC); 2500 µg/mL (≈ 7.45 mM) in [3] (S. epidermidis ATCC 35984, 24 h at 37°C, read-out: MIC). In addition, the MBC with E. coli ATCC 8739 [1] (E. coli ATCC 8739, read-out: MBC) came to 2500 µg/mL (≈ 7.45 mM); in the data set with P. aeruginosa ATCC 9027 (P. aeruginosa ATCC 9027, read-out: MBC), 10000 µg/mL (≈ 29.8 mM); in the data set on S. aureus ATCC 29213 [2] (S. aureus ATCC 29213, read-out: MBC) it was 2500 µg/mL (≈ 7.45 mM); in data set [3] (S. epidermidis ATCC 35984, read-out: MBC) it was 2500 µg/mL (≈ 7.45 mM). The “concentration at which hemolytic activity is over 50%” value in [4] (4% h-RBC, 1 h at 37°C) is 5000 µg/mL. In [4] (h-RBC, at MIC values), the “hemolysis / toxicity at MIC values (in words)” value is “not toxic at the MIC values”. The “cell morphology by TEM” value in the data set with C. albicans ATCC 10231 was “disintegration of the membranes”; in the data set with E. coli ATCC 8739 [5], “alteration of outer membrane”; in the data set with S. aureus ATCC 29213 [6], “induced abnormal septum formation with irregular features”. The logP in [7] is 1.21. Further, in the data set “PAMPA-GI permeability” (at each value of pH (5.0, 6.5, 7.4), after 18 h of incubation, read-out: PAMPA-GI permeability P e (bound)), the Papp at 18 h is greater than 1 ×10⁻⁶ cm/s. The Papp at 16 h in the data set “PAMPA-GI permeability” (pH 5.0 in donor and acceptor) turned out to be 8.6 ×10⁻⁶ cm/s; in the data set “PAMPA-GI permeability” (pH 6.5 in donor and acceptor) it was 17 ×10⁻⁶ cm/s; in “PAMPA-GI permeability” (pH 7.4 in donor and acceptor) it was 2.34 ×10⁻⁶ cm/s.

The values above are taken from PMC4393269, “Carvacrol Codrugs: A New Approach in the Antimicrobial Plan” (PLoS ONE, 2015).
